ChEMBL document CHEMBL4007510, “N6-Substituted 5'-N-Methylcarbamoyl-4'-selenoadenosines as Potent and Selective A3 Adenosine Receptor Agonists with Unusual Sugar Puckering and Nucleobase Orientation” (J Med Chem, 2017)
The source made the active and inactive calls. No cut-off for these calls is given here.

Assays:
[1] = biological target: T1, Adenosine receptor A3 (Homo sapiens) (UniProt P0DMS8); test: Agonist activity at human adenosine A3 receptor expressed in CHO cells assessed as decrease in forskolin induced cAMP formation preincubated for 10 mins followed by forskolin challenge measured after 15 mins by AlphaScreen assay relative to adenosine-5'-N- ethyluronamide; format: functional, cell-based; design: concentration or dose not given beside the values
T1 sequence (whole entry): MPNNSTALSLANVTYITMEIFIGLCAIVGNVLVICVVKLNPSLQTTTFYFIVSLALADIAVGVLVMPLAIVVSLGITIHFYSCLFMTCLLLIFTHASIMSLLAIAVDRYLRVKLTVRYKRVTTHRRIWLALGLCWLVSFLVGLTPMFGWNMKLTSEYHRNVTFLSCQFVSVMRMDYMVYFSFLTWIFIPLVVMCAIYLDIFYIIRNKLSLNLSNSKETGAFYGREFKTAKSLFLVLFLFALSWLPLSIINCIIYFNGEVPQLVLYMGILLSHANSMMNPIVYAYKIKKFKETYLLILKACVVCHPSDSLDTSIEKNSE

Adenosine receptor A2a [2] = biological target: T2, Adenosine receptor A2a (Homo sapiens, UniProt P29274); test: Displacement of [3H]CGS21680 from human adenosine A2A receptor expressed in HEK293 cells after 60 mins by liquid scintillation analyzer; format: cell-based
T2 sequence (P29274 whole entry): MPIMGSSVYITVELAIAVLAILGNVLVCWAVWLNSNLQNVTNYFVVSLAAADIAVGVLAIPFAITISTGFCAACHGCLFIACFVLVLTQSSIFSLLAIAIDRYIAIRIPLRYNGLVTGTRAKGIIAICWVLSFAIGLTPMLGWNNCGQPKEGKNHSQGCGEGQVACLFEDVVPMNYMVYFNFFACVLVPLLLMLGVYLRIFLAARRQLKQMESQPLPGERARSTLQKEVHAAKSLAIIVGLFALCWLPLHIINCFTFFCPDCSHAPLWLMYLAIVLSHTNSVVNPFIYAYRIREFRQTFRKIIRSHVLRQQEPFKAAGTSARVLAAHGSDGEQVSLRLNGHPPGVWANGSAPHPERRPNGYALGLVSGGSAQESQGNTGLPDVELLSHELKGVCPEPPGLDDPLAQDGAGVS

Adenosine receptor A3 [3] = biological target: T3, Adenosine receptor A3 (Homo sapiens, UniProt P0DMS8); test: Displacement of [125I]I-AB-MECA from human adenosine A3 receptor expressed in CHO cells after 60 mins by gamma counting analysis; format: cell-based
T3 sequence (P0DMS8 whole entry): T1 sequence (whole entry)

Adenosine receptor A1 = biological target: T4, Adenosine receptor A1 (Homo sapiens, UniProt P30542); test: Displacement of […] from human adenosine A1 receptor expressed in CHO cells after 60 mins by liquid scintillation analyzer; format: cell-based
T4 sequence (P30542 whole entry): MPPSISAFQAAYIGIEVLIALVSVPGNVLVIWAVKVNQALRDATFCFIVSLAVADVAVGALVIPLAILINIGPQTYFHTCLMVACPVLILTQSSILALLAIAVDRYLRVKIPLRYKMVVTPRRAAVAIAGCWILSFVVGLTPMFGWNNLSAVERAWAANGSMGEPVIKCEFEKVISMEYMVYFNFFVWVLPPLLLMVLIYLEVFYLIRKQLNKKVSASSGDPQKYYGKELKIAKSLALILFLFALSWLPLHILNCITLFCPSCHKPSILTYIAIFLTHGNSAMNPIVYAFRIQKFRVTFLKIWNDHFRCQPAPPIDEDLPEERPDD

[4] = Cytotoxicity against human MRC9 up to 20 uM; format: cell-based
Adenosine receptor A3 [5] = biological target: T3, Adenosine receptor A3; test: Agonist activity at human adenosine A3 receptor expressed in CHO cells assessed as decrease in forskolin induced cAMP formation preincubated for 10 mins followed by forskolin challenge measured after 15 mins by AlphaScreen assay; format: functional, cell-based
Microglia = test: Antimigratory activity in Sprague-Dawley rat microglial cells assessed as inhibition of MCP-1 mediated cell migration at 100 nM after 20 mins by inverted confocal microscopy; format: functional, cell-based
[6] = Cytotoxicity against Sprague-Dawley rat microglial cells assessed as effect on cell viability up to 50 uM after 24 hrs by presto blue assay; format: cell-based; conditions: microglia
Adenosine receptor A2a [7] = biological target: T2, Adenosine receptor A2a; test: Displacement of [3H]CGS21680 from human adenosine A2 receptor expressed in HEK293 cells at 10 uM after 60 mins by liquid scintillation analyzer relative to control; format: cell-based
[8] = biological target: T5, Adenosine receptor A1 (Homo sapiens) (UniProt P30542); test: Displacement of […] from human adenosine A1 receptor expressed in CHO cells at 10 uM after 60 mins by liquid scintillation analyzer relative to control; format: cell-based
T5 sequence (whole entry): T4 sequence (P30542 whole entry)

| Compound | Activity [1] [%] | Ki (Adenosine receptor A2a [2]) [nM] | Ki (Adenosine receptor A3 [3]) [nM] | Ki (Adenosine receptor A1) [nM] | Activity [4] | EC50 (Adenosine receptor A3 [5]) [nM] | inhibition (Microglia) | Activity [6] | inhibition (Adenosine receptor A2a [7]) [%] | inhibition [8] [%] |
| --- | --- | --- | --- | --- | --- | --- | --- | --- | --- | --- |
| CNC(=O)[C@H]1[Se][C@@H](n2cnc3c(N[C@@H]4C[C@H]4c4ccccc4)ncnc32)[C@H](O)[C@@H]1O | 89 | 2480 | 3.93 | 420 |  |  |  |  |  |  |
| CNC(=O)[C@H]1[Se][C@@H](n2cnc3c(NCc4ccc5ccccc5c4)ncnc32)[C@H](O)[C@@H]1O | 109 | 195 | 1.76 | 440 |  |  |  |  |  |  |
| CNC(=O)[C@H]1[Se][C@@H](n2cnc3c(NC4CCC4)ncnc32)[C@H](O)[C@@H]1O | 82 | 1080 | 1.39 | 37.5 |  |  |  |  |  |  |
| CNC(=O)[C@H]1[Se][C@@H](n2cnc3c(NCc4cccc(I)c4)nc(Cl)nc32)[C@H](O)[C@@H]1O | 94.1 | 1200 | 4.2 | 311 |  |  |  |  |  |  |
| CNC(=O)[C@H]1[Se][C@@H](n2cnc3c(NCc4cccc(Cl)c4)ncnc32)[C@H](O)[C@@H]1O | 80 | 555 | 3.45 | 570 | Non-Toxic |  |  |  |  |  |
| CNC(=O)[C@H]1[Se][C@@H](n2cnc3c(NCc4ccccc4OC)ncnc32)[C@H](O)[C@@H]1O | 97 | 1260 | 3.75 | 1880 |  |  |  |  |  |  |
| CNC(=O)[C@H]1[Se][C@@H](n2cnc3c(NC4CCC4)nc(Cl)nc32)[C@H](O)[C@@H]1O | 86.7 | 899 | 1 | 61.7 |  |  |  |  |  |  |
| CNC(=O)[C@H]1[Se][C@@H](n2cnc3c(NCc4cccc(Br)c4)ncnc32)[C@H](O)[C@@H]1O | 91 | 560 | 0.9 | 220 | Non-Toxic |  |  |  |  |  |
| CNC(=O)[C@H]1[Se][C@@H](n2cnc3c(NCc4cccc(Br)c4)nc(Cl)nc32)[C@H](O)[C@@H]1O | 106 | 1230 | 1.99 | 156 |  |  |  |  |  |  |
| CNC(=O)[C@H]1[Se][C@@H](n2cnc3c(NCc4cccc(I)c4)ncnc32)[C@H](O)[C@@H]1O | 91 | 1080 | 0.57 | 480 | Non-Toxic | 2.7 | Active | Non-Toxic |  |  |
| CNC(=O)[C@H]1S[C@@H](n2cnc3c(NCc4cccc(I)c4)ncnc32)[C@H](O)[C@@H]1O | 100 |  |  |  |  |  |  |  |  |  |
| CNC(=O)[C@H]1[Se][C@@H](n2cnc3c(NCc4cccc(F)c4)ncnc32)[C@H](O)[C@@H]1O | 74 | 1350 | 2.3 | 3310 | Non-Toxic |  |  |  |  |  |
| CNC(=O)[C@H]1[Se][C@@H](n2cnc3c(NC4CC4)nc(Cl)nc32)[C@H](O)[C@@H]1O | 83.6 |  | 1.9 | 186 |  |  |  |  | 30.3 |  |
| CNC(=O)[C@H]1[Se][C@@H](n2cnc3c(NC4CC4)ncnc32)[C@H](O)[C@@H]1O | 92 |  | 2.49 | 83.5 |  |  |  |  | 54 |  |
| CNC(=O)[C@H]1[Se][C@@H](n2cnc3c(NCc4ccccc4Cl)ncnc32)[C@H](O)[C@@H]1O | 85 | 1160 | 4.41 | 1090 |  |  |  |  |  |  |
| CNC(=O)[C@H]1[Se][C@@H](n2cnc3c(NC4CCCC4)nc(Cl)nc32)[C@H](O)[C@@H]1O | 92.5 | 1120 | 3.56 | 59.4 |  |  |  |  |  |  |
| CNC(=O)[C@H]1[Se][C@@H](n2cnc3c(NC4CCCC4)ncnc32)[C@H](O)[C@@H]1O | 77 | 1090 | 7.07 | 25.2 |  |  |  |  |  |  |
| CNC(=O)[C@H]1[Se][C@@H](n2cnc3c(NCc4cccc(F)c4)nc(Cl)nc32)[C@H](O)[C@@H]1O | 106 |  | 3.35 |  |  |  |  |  | 42 | 37.3 |
| CNC(=O)[C@H]1S[C@@H](n2cnc3c(NCc4cccc(I)c4)nc(Cl)nc32)[C@H](O)[C@@H]1O |  |  |  |  |  |  | Active | Non-Toxic |  |  |
| CNC(=O)[C@H]1[Se][C@@H](n2cnc3nc(Cl)nc(NCc4cccc(I)c4)c32)[C@H](O)[C@@H]1O | 14 |  | 7360 |  |  |  |  |  | 23 | 7 |
| CNC(=O)[C@H]1[Se][C@@H](n2cnc3c(NCc4cccc(Cl)c4)nc(Cl)nc32)[C@H](O)[C@@H]1O | 99.7 | 238 | 1.96 | 232 |  |  |  |  |  |  |
| CNC(=O)[C@H]1[Se][C@@H](n2cnc3ncnc(NCc4cccc(I)c4)c32)[C@H](O)[C@@H]1O | 0.2 |  | 4180 |  |  |  |  |  | 13 | 26 |
| CNC(=O)[C@H]1[Se][C@@H](n2cnc3c(NC)ncnc32)[C@H](O)[C@@H]1O | 108 |  | 1.49 | 2060 |  |  |  |  | 18 |  |
